Values after ≈ are worked out from the molar mass of the structure shown.
Columns and labels:
[1] = Compound toxicity assay: inhibition of HeLa cell translation (^3 H-LEU assay); format: cell-based; settings: human; HeLa cells, overnight (24 hours) treatment, tritiated leucine incorporation; read-out: CYTOTOXICITY ^3 H--LEU ASSAY IC50
Protocol: HeLa cells were treated with inhibitory compound for 24 hours, after which levels of translational activity were assayed.
For assay of translational activity, HeLa cultures were grown to 80% confluency in 96 well microtiter plates, treated with appropriate concentrations of compound in 2% EMEM during an overnight incubation at 37° C., then rinsed with HBSS and overlaid with […] of 2% EMEM containing 8 uCi of tritiated leucine (^3 H-LEU, 141 Ci/mMol, Amersham Corp., Arlington Heights Ill.). After 1 hr incubation at 36.5° C., the cells were rinsed twice with phosphate buffered saline (PBS) and lysed in 400 ul/well of 1×PBS, 0.5% sodium dodecyl sulphate (SDS). After a 10 minute incubation at 36.5° C., the contents of the well were transferred to a well in a Millititer HA microfiltration plate (Millipore Corp., Bedford, MA). The TCA insoluble proteins were precipitated onto the filter disc by a 10 minute fixation with 5% TCA, followed by filtration under vacuum and three 10 minute rinses with 95% ethanol. The filters were dried at room temperature, cut from the milltitier plate and transferred to scintillation vials. TCA precipitable counts were assayed in 5 ml of Scintisol (Isolab, Akron, Ohio). The inhibitory activity of a compound was plotted versus the concentration and an IC50 value (that concentration of the compound required to decrease cellular translational activity by 50%) was derived for each compound.

HSV-2 (strain MS) = assay: Transient expression of beta galactosidase in transfected HeLa cells superinfected with HSV-2 (HSV-β-GAL assay); format: cell-based; settings: Human alphaherpesvirus 2, plasmid pON 245^ori-, moi=5 pfu/cell, 24 hours, read-out: ANTI-HSV ACTIVITY HSV-β-GAL ASSAY IC50
Protocol: HeLa and Vero cell cultures were maintained in Eagles Minimal Essential Medium (EMEM) which was supplemented with glutamine, penicillin, streptomycin and 10% fetal calf serum (10% EMEM). Stock cultures of HSV-2 (strain MS available from ATCC VR-540) were grown in and harvested from Vero cells. Viral stocks were titered in Vero cells according to established procedures.
Plasmid pON 245^ori- contains the promoter of the HSV-1 thymidine kinase (tk) gene located immediately 5' of the E. coli lac Z gene. In this arrangement, the tk promoter controls transcription from the bacterial gene in transient expression assays. Additionally, an SV40 polyadenylation signal is present at the 3' end of the lac Z gene to allow for the efficient translation of the mRNA in eucaryotic cells. The expression of beta galactosidase in a transient assay using pON 245^ori- is dependent upon superinfection of the transfected cells with HSV. […] For example see U.S. application Ser. No. 07/435,491 filed Sep. 5, 1989, the disclosure of which is incorporated herein by reference thereto.
HeLa cells were seeded into 96 well microtiter plates and allowed to grow to 80% confluency (approximately 35,000 cells/well). One half microgram of plasmid pON 245^ori- DNA was introduced into the cells of each well by the […] precipitation technique (Grahman and Van der Eb, 1973). Four to six hours later, the cells were rinsed with hank's Balanced Salt Solution (HBSS), overlaid with 10% EMEM and incubated at 37° C. At 24 hrs post-transfection, cells were rinsed, overlaid with 10% EMEM again and re-incubated at 37° C. At 48 hrs post-transfection, cells were rinsed and overlaid with either EMEM containing 2% fetal calf serum (2% EMEM), 2% EMEM containing HSV-2 (strain MS, Multiplicity of Infection [moi]=5 pfu/cell) or 2% EMEM containing HSV-2 and the appropriate concentration of Schering compound to be tested. Twenty-four hours later, the cells were harvested and assayed for beta galactosidase activity as described below.
All determinations of beta galactosidase activity were performed in 96 well microtiter plates. The intracellular level of beta galactosidase activity in each well was determined from cell lysates of the monolayer cultures. Aliquots were assayed by incubation in the presence of beta galactosidase substrate, 4-methylumbelliferyl-β-D-galactoside (MUG, 125 ug/ml, Sigma), for 2 hours. The generation of fluorescent product was quantified on a Microfluor microfluorimeter (Dynatech) after addition of 0.1M glycine, pH 10.3 (Spaete and Mocarski, 1985). The inhibitory activity of a compound was plotted versus the concentration and an IC50 value (the concentration of compound required to reduce beta glactosidase expression by 50%) was obtained for each compound tested.

Work on CN1C(=O)C(=CNCc2ccccc2)C(=O)c2ccccc21 [EX. 14, (E,Z) 1-Methyl-3-Benzylaminomethylene-Quinolin-2,4(1H)-Dione] yielded a CC50 at 24 h [1] of 27 µg/mL (≈ 92.4 µM) and an IC50 (HSV-2 (strain MS)) of 9 µg/mL (≈ 30.8 µM).

Work on Cc1ccc2c(c1)C(=O)C(=CNCc1ccncc1)C(=O)N2Cc1ccccc1 [EX. 15, (E,Z)1-Benzyl-3-[4-Pyridylmethylamino)methylene]-6-Methyl-Quinolin-2,4(1H)-Dione] yielded a CC50 at 24 h [1] of 37 µg/mL (≈ 96.5 µM) and an IC50 (HSV-2 (strain MS)) of 6 µg/mL (≈ 15.6 µM).

In the case of O=C1C(=CNCc2ccccc2)C(=O)N(Cc2ccccc2)c2ccc(Cl)cc21 [EX. 16, (E,Z 1-Benzyl-3-Benzylaminomethylene-6-Chloro-Quinolin-2,4(1H)-Dione], the CC50 at 24 h [1] is reported as 7 µg/mL (≈ 17.4 µM) and the IC50 (HSV-2 (strain MS)) is reported as under 3 µg/mL.

O=C1C(=CNCc2ccncc2)C(=O)N(Cc2ccccc2)c2ccc(Cl)cc21 [EX. 17, (E,Z1-Benzyl-3-[(4-Pyridylmethylamino)methylene-6-Chloro-Quinolin-2,4(1H)-Dione] gave a CC50 at 24 h [1] of 17 µg/mL (≈ 42.1 µM) and an IC50 (HSV-2 (strain MS)) of 4 µg/mL (≈ 9.9 µM).

O=C1C(=CNCc2ccccc2)C(=O)N(Cc2ccccc2)c2cc(Cl)ccc21 [EX. 18, (E,Z)1-Benzyl-3-Benzylaminomethylene-7-Chloro-Quinolin-2,4(1H)-Dione] gave a CC50 at 24 h [1] of 10 µg/mL (≈ 24.8 µM) and an IC50 (HSV-2 (strain MS)) of 6 µg/mL (≈ 14.9 µM).

O=C1C(=CNCc2ccncc2)C(=O)N(Cc2ccccc2)c2cc(Cl)ccc21 [EX. 19, (E,Z)1-Benzyl-3-[(4-Pyridylmethylamino)methylene]7-Chloro-Quinolin-2,4(1H)-Dione] showed a CC50 at 24 h [1] of 40 µg/mL (≈ 99 µM) and an IC50 (HSV-2 (strain MS)) of 13 µg/mL (≈ 32.2 µM).

For Cc1cccc2c1N(Cc1ccccc1)C(=O)C(=CNCc1ccccc1)C2=O [EX. 20, (E,Z) 1-Benzyl-3-Benzylaminomethylene-8-Methyl-Quinolin-2,4(1H)-Dione], the CC50 at 24 h [1] was 10 µg/mL (≈ 26.1 µM) and the IC50 (HSV-2 (strain MS)) was 3 µg/mL (≈ 7.84 µM).

Compound Cc1cccc2c1N(Cc1ccccc1)C(=O)C(=CNCc1ccncc1)C2=O [EX. 21, (E,Z)1-Benzyl-3-[(4-Pyridylmethylamino)methylene]-8-Methyl-Quinolin-2,4(1H)-Dione] has a CC50 at 24 h [1] of 29 µg/mL (≈ 75.6 µM) and an IC50 (HSV-2 (strain MS)) of under 3 µg/mL.

In the case of CN1C(=O)C(=CNCc2ccncc2)C(=O)c2ccccc21 [EX. 22, (E,Z)1-Methyl-3-[(4-Pyridylmethylamino)methylene]Quinolin-2,4(1H)-Dione], the CC50 at 24 h [1] is reported as 100 µg/mL (≈ 341 µM) and the IC50 (HSV-2 (strain MS)) is reported as under 3 µg/mL.

For O=C1C(=CNCc2ccncc2)C(=O)N(Cc2ccccc2)c2ccccc21 [EX. 24, (E,Z)1-Benzyl-3-[(4-Pyridylmethylamino)methylene]-Quinolin-2,4(1H)-Dione], the CC50 at 24 h [1] was over 100 µg/mL and the IC50 (HSV-2 (strain MS)) was 10 µg/mL (≈ 27.1 µM).

With CCCCCCN1C(=O)C(=CNCc2ccccc2)C(=O)c2ccccc21 [EX. 25, (E,Z)1-hexyl-3-benzyleminomethylene-quinolin-2,4(1H)-Dione] the CC50 at 24 h [1] was 37 µg/mL (≈ 102 µM) and the IC50 (HSV-2 (strain MS)) was under 3 µg/mL.

CCCCCCN1C(=O)C(=CNCc2ccncc2)C(=O)c2ccccc21 [EX. 26, (E,Z)1Hexyl-3-[(4-Pyrigylmethylamino)methylene-Quinolin-2,4(1H)-Dione] gave a CC50 at 24 h [1] of 43 µg/mL (≈ 118 µM) and an IC50 (HSV-2 (strain MS)) of 4 µg/mL (≈ 11 µM).

O=C1C(=CNCc2ccccc2)C(=O)N(c2ccccc2)c2ccccc21 [EX. 27, (E,Z)1-Phenyl-3-Benzylaminomethylene-Quinolin-2,4(1H)-Dione] gave a CC50 at 24 h [1] of 10 µg/mL (≈ 28.2 µM) and an IC50 (HSV-2 (strain MS)) of 4 µg/mL (≈ 11.3 µM).

In the case of O=C1C(=CNCc2ccncc2)C(=O)N(c2ccccc2)c2ccccc21 [EX. 28, (E,Z)1-Phenyl-3-[(-Pyridylmethylamino)methylene]Quinolin-2,4(1H)-Dione], the CC50 at 24 h [1] is reported as 25 µg/mL (≈ 70.3 µM) and the IC50 (HSV-2 (strain MS)) is reported as 7 µg/mL (≈ 19.7 µM).

With CCCCCCCN1C(=O)C(=CNCc2ccccc2)C(=O)c2ccccc21 [EX. 29, (E,Z)1-Heptyl-3-Benzylaminomethylene-Quinolin-2,4(1H)-Dione] the CC50 at 24 h [1] was 16 µg/mL (≈ 42.5 µM) and the IC50 (HSV-2 (strain MS)) was 5 µg/mL (≈ 13.3 µM).

In the case of CCCCCCCN1C(=O)C(=CNCc2ccncc2)C(=O)c2ccccc21 [EX. 30, (E,Z)1-Heptyl-3-[(4-Pyridylmethylamino)methylene]-Quinolin-2,4(1H)-Dione], the CC50 at 24 h [1] is reported as 20 µg/mL (≈ 53 µM) and the IC50 (HSV-2 (strain MS)) is reported as 3 µg/mL (≈ 7.95 µM).

CC(NCc1ccccc1)=C1C(=O)Oc2ncccc2C1=O [EX. 31, 3-[1-Benzylaminoethylidine]-2,4-dioxo-2,3-dihydro-4H-pyrido-[2,3-b]-pyran] gave a CC50 at 24 h [1] of over 100 µg/mL and an IC50 (HSV-2 (strain MS)) of 11 µg/mL (≈ 37.4 µM).

CN(C)C=C1C(=O)c2cccnc2N(c2ccccc2)C1=O [EX. 32, 1-Phenyl-3-(dimethylaminomethylene)-3,4-dihydro-2H-[1,8]-naphthyridine-2,4-dione] gave a CC50 at 24 h [1] of over 100 µg/mL and an IC50 (HSV-2 (strain MS)) of 18 µg/mL (≈ 61.4 µM).

With C=CCNC=C1C(=O)Oc2ccccc2C1=O [EX. 34, E,Z-3-[Allylaminomethylene]-dihydrobenzo-[b]-pyran-2,4-dione] the CC50 at 24 h [1] was 46 µg/mL (≈ 201 µM) and the IC50 (HSV-2 (strain MS)) was 8 µg/mL (≈ 34.9 µM).

With CCNC=C1C(=O)c2cccnc2N(c2ccccc2)C1=O [EX. 35, 1-Phenyl-E,Z-3-[ethylaminomethylene]-3,4-dihydro-2H-[1,8]-naphthyridine-2,4-dione] the CC50 at 24 h [1] was over 50 µg/mL and the IC50 (HSV-2 (strain MS)) was 7 µg/mL (≈ 23.9 µM).

O=C1C(=CNCc2ccccc2)C(=O)N(c2ccccc2)c2ncccc21 [EX. 36, 1-Phenyl-E,Z-3-[benzylaminomethylene]-3,4-dihydro-2H-[1,8]-naphthyridine-2,4-dione] gave a CC50 at 24 h [1] of 42 µg/mL (≈ 118 µM) and an IC50 (HSV-2 (strain MS)) of 22 µg/mL (≈ 61.9 µM).

Cc1cccc(NC=C2C(=O)c3cccnc3N(c3ccccc3)C2=O)n1 [EX. 37, 1-Phenyl-E,Z-3-[(6-methyl-2-pyridylamino)methylene]-3,4-dihydro-2H-[1,8]-naphthyridine-2,4-dione] gave a CC50 at 24 h [1] of 56 µg/mL (≈ 157 µM) and an IC50 (HSV-2 (strain MS)) of 22 µg/mL (≈ 61.7 µM).

For CCNC=C1C(=O)Oc2ncccc2C1=O [EX. 38, 3-(ethylaminomethylene)-2,4-dioxo 3,4-dihydro-2H-pyrido-[2,3-b]-pyran], the IC50 (HSV-2 (strain MS)) was over 25 µg/mL.

Work on CCCCCCCN1C(=O)C(=CNN2CCOCC2)C(=O)c2ccccc21 [EX. 39, (E,Z)-1-heptyl-3-[(4-morpholino)aminomethylene]-quinolin-2,4(1H)dione] yielded a CC50 at 24 h [1] of 29 µg/mL (≈ 78.1 µM) and an IC50 (HSV-2 (strain MS)) of 4 µg/mL (≈ 10.8 µM).

In the case of CCCCCCCN1C(=O)C(=CNC23CC4CC(CC(C4)C2)C3)C(=O)c2ccccc21 [EX. 40, (E,Z)-1-heptyl-3-[1-adamantylaminomethylene]-quinolin-2,4(1H)dione], the CC50 at 24 h [1] is reported as 33 µg/mL (≈ 78.5 µM) and the IC50 (HSV-2 (strain MS)) is reported as 5 µg/mL (≈ 11.9 µM).

Compound O=C1C(=CNCc2cnc[nH]2)C(=O)N(Cc2ccccc2)c2ccccc21 [EX. 41, (E,Z)-1-benzyl-3-[(1H-5-imidazolylmethyl)aminomethylene]-quinolin-2,4(1H)dione] has a CC50 at 24 h [1] of 34 µg/mL (≈ 94.9 µM) and an IC50 (HSV-2 (strain MS)) of 8 µg/mL (≈ 22.3 µM).

CCCCCCN1C(=O)C(=CN[C@H]2C(O)O[C@H](CO)[C@@H](O)[C@@H]2O)C(=O)c2ccccc21 (some centres unmarked) [EX. 42, (E,Z)-1-hexyl-3-(D) glucosaminomethylene-quinolin-2,4(1H)dione] showed a CC50 at 24 h [1] of 25 µg/mL (≈ 57.5 µM) and an IC50 (HSV-2 (strain MS)) of 10 µg/mL (≈ 23 µM).

COc1ccc(OCCCOCN2C(=O)C(=CNCc3ccncc3)C(=O)c3ccccc32)c(Cl)c1 [EX. 43, (E,Z) 1-[3(2-chloro-4-methoxyphenoxy)-propyloxymethyl]-3-(4-pyridylmethylamino)methylene-quinolin-2,4(1H)dione] gave a CC50 at 24 h [1] of 30 µg/mL (≈ 59.1 µM) and an IC50 (HSV-2 (strain MS)) of 10 µg/mL (≈ 19.7 µM).

Compound CCNC=C1C(=O)c2ccccc2N(C)C1=O [EX. 44, (E,Z) 1-methyl-3-ethylaminomethylene-quinolin-2,4(1H)dione] has a CC50 at 24 h [1] of 43 µg/mL (≈ 187 µM) and an IC50 (HSV-2 (strain MS)) of 14 µg/mL (≈ 60.8 µM).

For O=C1C(=CNCc2ccncc2)C(=O)N(Cc2ccccc2)c2ccsc21 [EX. 46], the CC50 at 24 h [1] was 23 µg/mL (≈ 61.3 µM) and the IC50 (HSV-2 (strain MS)) was 3 µg/mL (≈ 7.99 µM).

From US5179093A, “Quinoline-diones” (Schering Corporation, priority 1991, dated 1993)
